Measurements as given in patent US6492365B1, “Microsomal triglyceride transfer protein” (Bristol-Myers Squibb Company, priority 1992, dated 2002).
Structures can show the parent of a compound that is named as a salt.

Biological target: T1, bovine MTP (Bos taurus, UniProt P55156)
T1 construct: with about 50-200 ng purified MTP in the well of a 96-well plate; from tissue; host or cells: bovine liver
T1 sequence (P55156 12-887): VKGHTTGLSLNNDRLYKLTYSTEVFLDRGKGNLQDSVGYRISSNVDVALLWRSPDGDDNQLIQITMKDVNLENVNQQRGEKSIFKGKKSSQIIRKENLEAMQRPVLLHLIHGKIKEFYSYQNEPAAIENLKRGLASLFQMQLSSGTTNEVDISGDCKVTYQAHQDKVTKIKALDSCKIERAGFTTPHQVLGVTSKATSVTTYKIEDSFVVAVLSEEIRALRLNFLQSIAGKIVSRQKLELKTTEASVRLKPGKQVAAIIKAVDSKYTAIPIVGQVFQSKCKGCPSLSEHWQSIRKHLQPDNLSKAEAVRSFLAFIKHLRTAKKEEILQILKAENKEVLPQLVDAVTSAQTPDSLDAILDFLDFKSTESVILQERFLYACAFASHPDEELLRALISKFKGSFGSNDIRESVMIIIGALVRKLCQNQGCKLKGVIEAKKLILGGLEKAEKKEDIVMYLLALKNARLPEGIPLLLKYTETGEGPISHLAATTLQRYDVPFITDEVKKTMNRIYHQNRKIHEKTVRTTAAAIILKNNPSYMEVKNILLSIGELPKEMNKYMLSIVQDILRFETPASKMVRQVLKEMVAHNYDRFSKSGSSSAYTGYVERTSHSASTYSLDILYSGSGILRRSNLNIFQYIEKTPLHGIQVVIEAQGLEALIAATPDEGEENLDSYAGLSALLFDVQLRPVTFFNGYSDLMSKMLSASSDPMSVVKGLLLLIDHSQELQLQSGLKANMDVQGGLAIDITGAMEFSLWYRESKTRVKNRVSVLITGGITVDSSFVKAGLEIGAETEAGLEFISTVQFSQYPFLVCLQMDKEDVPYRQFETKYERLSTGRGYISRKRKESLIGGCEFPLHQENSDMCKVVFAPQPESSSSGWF
T1 sequence (P05307 21-510 partner): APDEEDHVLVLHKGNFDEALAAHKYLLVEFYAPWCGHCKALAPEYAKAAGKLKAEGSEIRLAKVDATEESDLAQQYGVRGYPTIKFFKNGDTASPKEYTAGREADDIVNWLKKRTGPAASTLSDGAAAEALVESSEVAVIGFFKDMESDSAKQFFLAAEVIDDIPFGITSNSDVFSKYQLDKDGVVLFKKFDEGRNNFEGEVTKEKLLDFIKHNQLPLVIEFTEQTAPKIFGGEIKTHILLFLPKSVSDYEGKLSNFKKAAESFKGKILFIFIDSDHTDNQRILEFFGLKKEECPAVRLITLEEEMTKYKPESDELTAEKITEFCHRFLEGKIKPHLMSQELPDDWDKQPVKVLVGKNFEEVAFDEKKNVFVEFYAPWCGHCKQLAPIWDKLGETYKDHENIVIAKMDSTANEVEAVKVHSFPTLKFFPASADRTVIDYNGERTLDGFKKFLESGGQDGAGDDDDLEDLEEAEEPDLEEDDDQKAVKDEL
Test: MTP-catalyzed transfer of radiolabeled TG from donor HDL to acceptor LDL (primary screen)
Type: biochemical
Conditions: result in words
Method: In this screen, the rate of detectably labeled lipid (for example, NMR, ESR, radio or fluorescently labeled TG, CE, or PC) transfer from donor particles (e.g., donor membranes, vesicles, or lipoproteins) to acceptor particles (e.g., acceptor membranes, vesicles, or lipoproteins) in the presence of MTP is measured. A decrease in the observed transfer rate in the presence of an inhibitor of MTP (e.g., contained in a natural products extract or known compounds) may be used as an assay to identify and isolate inhibitors of MTP function. […]
In a typical 150 μL assay, transfer activity is determined by measuring the transfer of radiolabeled TG from [^3H]-HDL (5 μg cholesterol) donor particles to LDL (50 μg cholesterol) acceptor particles at 37° C. for three hours in 15 mM Tris, pH 7.4, 125 mM MOPS, 30 mM Na acetate, 160 mM NaCl, 2.5 mM Na2 EDTA, 0.02% NaN3, 0.5% BSA with about 50-200 ng purified MTP in the well of a 96-well plate. […] The enzyme activity is based on the percentage of TG transfer and is calculated by the following equation: [formula] […]
Using the method outlined in Example 5, MTP inhibitor compounds A and B were identified. The assay measured the bovine MTP-catalyzed rate of transport of radiolabeled TG from donor HDL to acceptor LDL. […]

inhibition of MTP-catalyzed transport of 3H-TG from HDL to LDL	SMILES
inhibited	O=C1c2ccccc2CN1C1CCN(CCC(c2ccccc2)c2ccccc2)CC1 [compound A, 2-[1-(3,3-diphenylpropyl)-4-piperdinyl]-2,3-dihydro-3-oxo-1H-isoindole hydrochloride]
MTP inhibitor	COc1ccccc1N1CCN(CC2CC(=O)c3ccc(F)cc3C2)CC1 (centres unmarked) [compound B, 1-[3-(6-fluoro-1-tetralanyl)methyl]-4-O-methoxyphenyl piperazine]
